Measured values as given in paper PMC3423587 (Bioorganic & medicinal chemistry letters, 2012).

What was measured:
[1] = target: recombinant β-secretase (Homo sapiens, UniProt P56817); experiment: β-secretase inhibitory activity against recombinant β-secretase; conditions: for fold lower enzyme inhibitory potency: compared to 3a
[2] = system: β-secretase in neuroblastoma cells; conditions: Neuroblastoma cell
[3] = system: transgenic AD mice; conditions: cited from earlier work

recombinant β-secretase, sequence (P56817 46-501): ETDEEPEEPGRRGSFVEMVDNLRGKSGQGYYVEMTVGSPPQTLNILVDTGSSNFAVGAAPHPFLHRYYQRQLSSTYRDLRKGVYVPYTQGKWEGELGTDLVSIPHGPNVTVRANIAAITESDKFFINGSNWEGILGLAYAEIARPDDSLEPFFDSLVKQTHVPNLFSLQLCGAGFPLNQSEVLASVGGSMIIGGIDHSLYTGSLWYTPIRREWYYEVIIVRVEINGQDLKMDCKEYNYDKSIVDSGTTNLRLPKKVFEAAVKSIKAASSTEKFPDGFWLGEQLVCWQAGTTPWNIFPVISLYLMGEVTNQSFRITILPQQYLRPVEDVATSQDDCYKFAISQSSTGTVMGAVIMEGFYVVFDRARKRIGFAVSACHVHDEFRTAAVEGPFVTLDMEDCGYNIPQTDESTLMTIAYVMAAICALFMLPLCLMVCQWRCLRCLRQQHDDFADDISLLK

SMILES: CN(C(=O)CC[C@@H](c1ccccc1)N1Cc2cc(Oc3ccccc3)ccc2N=C1N)C1CCCCC1 [3b]
- fold lower enzyme inhibitory potency [1]: ~6 fold

SMILES: CN(C(=O)OC[C@@H](c1ccccc1)N1Cc2cc(Oc3ccccc3)ccc2N=C1N)C1CCCCC1 [3c]
- fold loss of potency ([1]; compared to 3b): ~5 fold

SMILES: CN(C(=O)OC[C@@H](C1CCCCC1)N1Cc2cc(Oc3ccccc3)ccc2N=C1N)C1CCCCC1 [3d]
- fold improved potency ([1]; over 3c): 20 fold

SMILES: CN(C(=O)CC[C@@H](C1CCCOC1)N1Cc2cc(Oc3ccccc3)ccc2N=C1N)C1CCCCC1 (stereo partly shown) [3g]
- fold lower enzyme inhibitory potency [1]: ~5 fold

SMILES: COCc1nc(CN(C(=O)CC[C@@H](C2CCCCC2)N2Cc3cc(Oc4ccccc4)ccc3N=C2N)C2CCCCC2)cs1 [4f]
- fold improvement of enzyme activity ([1]; over 4b): ~6 fold

SMILES: NC1=Nc2ccc(Oc3ccccc3)cc2CN1[C@@H](CCC(=O)N(Cc1cn[nH]c1)C1CCCCC1)C1CCCCC1 [4h]
- IC50 [2]: 48 nM

SMILES: COc1cccc(CNC[C@@H](O)[C@H](Cc2ccccc2)NC(=O)c2cc(C(=O)N[C@H](C)c3ccccc3)cc(N(C)S(C)(=O)=O)c2)c1 [GRL-8234]
- effect on cognitive function [3]: rescued the decline of cognitive function
